Where a SMILES comes first, the peptide text is derived from it. [ ]: non-standard residue; d: D form. N(1S-Me-propyl)Gly = CC[C@H](C)NCC(=O)O; Nspe = C[C@H](NCC(=O)O)c1ccccc1; Nlys = NCCCCNCC(=O)O
Tested on: IL-6
Experiment: IL-6 expression in previously LPS-stimulated THP1 macrophages (ELISA)
Assay type: cell-based, human
Conditions: 25, 5, 1 μM added after 48 h of 2 ng/mL LPS, additional 24 h
Experimental: THP-1 monocytes were differentiated as described above 20. Upon differentiation, these cells were then incubated (48 h) with media containing low-dose (2 ng/mL) LPS as a chronic pro-inflammatory stimulus 21. Following incubation, JPT1a or JPT1 was added for final concentrations of 25, 5, and 1 μM 22, and cells were incubated an additional 24 h. Treatment with 2 ng/mL LPS alone served as a positive control, while treatment with an equivalent volume of buffer diluted into media served as the vehicle. Media was collected for later assessment of cytokines via ELISA as described above 23. Cells were fixed and stained for RAGE, phalloidin (cytoplasmic marker), and DAPI (nuclear marker) 24. Each channel was imaged with a Zeiss LSM 510 META Confocal Scanning Laser Microscope using a plan-neofluar 40×/1.3 oil DIC immersion objective; three of these multi-channel images were obtained from each slide in each experiment. 25 All multi-channel images were converted to TIFF file format via ImageJ64 software for quantitative image analysis using a custom subroutine written in Matlab™ software to obtain the average RAGE expression per volume of cells, and the data generated was assessed for statistical significance using GraphPad Prism 7.0 software 26.
As shown in FIGS. 4B-4D, THP1 macrophages were treated with low-dose LPS at 2 ng/mL. […]

## CC[C@H](C)N(CC(=O)N(CC(=O)N(CC(=O)N(CC(=O)N(CC(=O)N(CC(=O)N(CC(N)=O)[C@@H](C)c1ccccc1)[C@@H](C)c1ccccc1)[C@@H](C)CC)[C@@H](C)c1ccccc1)[C@@H](C)c1ccccc1)[C@@H](C)CC)C(=O)CNCCCCN [JPT1a] (H-[Nlys][N(1S-Me-propyl)Gly][N(1S-Me-propyl)Gly][Nspe][Nspe][N(1S-Me-propyl)Gly][Nspe][Nspe]-NH2)
  IL-6 production of previously stimulated macrophages: does not affect cytokine production

— patent US11197908B2, “Peptoids and methods for attenuating inflammatory response” (THE BOARD OF TRUSTEES OF THE UNIVERSITY OF ARKANSAS, priority 2018, dated 2021)
